{"source": "paper PMC9014415", "about": "“Repositioning of a Diaminothiazole Series Confirmed to Target the Cyclin-Dependent Kinase CRK12 for Use in the Treatment of African Animal Trypanosomiasis” (Journal of Medicinal Chemistry, 2022)", "key": {"[1]": {"assay": "Protein plasma binding", "format": "in vitro ADME", "conditions": "mouse", "description": "2.4 Protein plasma binding\nThis was determined as previously described.6\n2.5 PK and maximum tolerated dose - mouse\nPK studies in female NMRI mice (Figure S1): Test compounds 1, 2 and 10 were dosed SC at 10 mg free base/kg (dose volume 10 mL/kg; dose vehicle: 5% (v/v) DMSO, 40% polyethylene glycol 400 (PEG400) and 55% deionized water) to female NMRI mice (n = 3). Blood samples (10 μL) were taken from each mouse at 0.08, 0.25, 0.5, 1, 2, 4, 6, 8 h post dose (24 h post dose for compounds 2 and 10 only) and mixed with two volumes of deionized water (20 μL). Alternatively, compound 2 was delivered for 48 h via SC implanted ALZET osmotic pumps (10, 25 and 50 mg free base/mL, vehicle: 50% DMSO and 50% deionized water) to the female NMRI mouse (n = 3). Blood samples (10 μL) from each mouse were taken at 1, 3, 6, 24, 30 and 48 h post-dose and mixed with two volumes of deionized water (20 μL).\nCompound 1 as free base in 5% DMSO; 40% PEG400; 55% MilliQ water was dosed daily subcutaneously with doses of 50 mg/kg, 100 mg/kg and 300 mg/kg for 3 days.\n2.6 PK and formulation studies - male Sprague rats […]"}, "[2]": {"conditions": "in vivo"}, "[3]": {"tested_on": "T. congolense", "assay": "Cattle efficacy for compound 2, intramuscular (CIRDES), T. congolense", "format": "in vivo, Trypanosoma congolense", "description": "Compound 2 was progressed into IM efficacy studies dosing at 10 mg/kg either once or twice, 15 h apart, in cattle infected with T. congolense or T. vivax. […]\n3.5 Cattle efficacy for compound 2, intramuscular (CIRDES)\nFelani-zebu cattle were housed in a fly-proof facility, acclimatised for 15 d prior to the study, cattle were treated with an anthelmintic, an ectoparasiticide and an antibiotic. Donor animals were infected with stabilates (frozen stocks) of either T. congolense KOT256 (resistant to 7 mg/kg diminazene in cattle) or T. vivax Gando Bongaly (resistant to diminazene 7 mg/kg and to isometamidium 1 mg/kg […]\n(§1) in cattle). Blood from the donor animals, diluted with phosphate buffered glucose was used to infect recipient animals IV via the jugular vein. Infection was with approximately 100,000 fresh viable parasites. The compounds were given IM. Each injection was up to 10 mL and given in neck in the following order: left anterior third, right anterior third, left posterior third and right posterior third.\n(§2) Animals over 240 kg required a fifth injection site for the IVP, and this was given in the left or right hind leg. Cattle were randomised to treatments. Parasitaemia was monitored 3 times per calendar week, though collection of blood and assessment of clinical symptoms. Blood samples were also […]\ntreatment). […]"}, "[4]": {"tested_on": "bloodstream T. brucei resistant lines R1-R3", "assay": "Sensitivity of compound 2-resistant T. brucei lines compared to wild-type", "format": "cell-based, Trypanosoma brucei", "description": "To gain further insight into the molecular target(s) of this series, resistance was generated against compound 2 in a drug-sensitive clonal line of bloodstream T. brucei. Trypanosomes were cultured in the continuous presence of compound 2 for a total of 122 days. […] Following drug selection, resistant parasites were cloned by limiting dilution. The relative sensitivities of these cloned cell lines were established and compared to that of wild-type parasites. Resistant lines R1 and R3 were 10-fold resistant, while R2 was 90-fold resistant to compound 2 (Figure 4A). […] In addition, all three clones had lost a significant part of chromosome 10 and gained additional copies of a region of chromosome 8. All three resistant lines carried a mutation in Tb927.4.4590, a gene encoding a non-essential putative kinase and in Tb927.11.10300, encoding a hypothetical protein. Of particular note, all three clones (R1–3) shared a non-synonymous substitution (Gly492Ala) in Tb927.11.12310, the gene encoding CRK12. In addition, R2 harbored a second non-synonymous substitution (Leu482Phe) in CRK12 (Table S10). […]\nas §1, §2\ntreatment). Cattle were also monitored for PCV, clinical symptoms, body weight and temperature […]\n4. Mode of action studies\n4.1 Resistant line generation […]\nSequencing reads (100 bp) were aligned to the Trypanosoma brucei TREU927 genome (v39; tritrypDB) using Bowtie210 and Samtools11 software. […]"}, "[5]": {"assay": "Injection site tolerance in the IM efficacy study in African cattle", "format": "in vivo", "conditions": "free base in Kolliphor EL, NMP, 2-pyrrolidone, 11% water", "description": "Compound 2 was only partially curative for cattle infected with T. congolense following two doses (1/4 and 2/4 in different treatment arms), administered 15 h apart (Table 4, Table S8, and Figure S9a). The curative regimen aligned well with PK/PD data from mice. However, cattle infected with T. vivax and dosed IM were not cured despite the fact that PK data from some T. vivax-infected cattle (Table 4, Table S9, and Figure S9b) predicted that a dosing at this level should have been curative based on mouse data. This lack of efficacy at exposures expected to deliver a cure is even more perplexing when the metabolism of compound 2 is considered. […] The rate and extent of this metabolism is higher in T. vivax-infected animals compared to those infected with T. congolense (Table S10) for reasons that are not clear."}}, "note": "“And” between values parts separate entries of the source, which are not always exact repeats. Equal entries are not always repeated.", "data": [{"molecule": "CC(C)CS(=O)(=O)N[C@H]1CC[C@H](Nc2nc(N)c(C(=O)c3c(F)cccc3F)s2)CC1", "note": "[Compound 1, N-((trans)-4-((4-Amino-5-(2,6-difluorobenzoyl)thiazol-2-yl)amino)cyclohexyl)-2-methylpropane-1-sulfonamide]", "values": [{"measurement": "fraction unbound", "setting": "[1]", "value": 0.16}, {"measurement": "Mouse oral MTD", "setting": "[2]; po, 3 days", "value": ">300", "unit": "mg/kg"}, {"measurement": "Tolerability, maximum tolerated dose study", "setting": "[2]; mouse, sc", "value": "No tolerability issues"}]}, {"molecule": "CC(C)CS(=O)(=O)N[C@H]1CC[C@H](Nc2nc(N)c(C(=O)c3c(F)cc(CN(C)C)cc3F)s2)CC1", "note": "[Compound 2, N-(trans)-[4-[[4-Amino-5-[4-(dimethylaminomethyl)-2,6-difluoro-benzoyl]thiazol-2-yl]amino]cyclohexyl]-2-methyl-propane-1-sulfonamide]", "values": [{"measurement": "Cattle cured", "setting": "[3]; 10 mg/kg IM twice, 15 h apart, treatment groups T2 and T4 together", "value": "three out of the eight"}, {"measurement": "efficacy", "setting": "[3]; T1, 10 mg/kg IM once, cured/animals, 100 days", "value": "0/6"}, {"measurement": "Efficacy, individual animals", "setting": "[3]; T1 single dose IM, animals 1903, 1910, 1913, 1924, 1935, 1936", "value": "no"}, {"measurement": "efficacy", "setting": "[3]; T2, 10 mg/kg IM twice, 15 h apart, cured/animals", "value": "1/4"}, {"measurement": "Efficacy, individual animals", "setting": "[3]; T2 dosed twice IM, animals 1905, 1906, 1909, 1917", "value": "no (3×) and yes"}, {"measurement": "efficacy", "setting": "[3]; T4, saline twice, followed by compound 2 rescue dose twice IM 5 days later", "value": "2/4"}, {"measurement": "Efficacy, individual animals", "setting": "[3]; T4 after 2 (two rescue doses IM), animals 1914, 1921, 1923, 1927", "value": "no (2×) and yes (2×)"}, {"measurement": "Resistance compared to wild-type", "setting": "[4]; resistant line R1", "value": 10, "unit": "fold"}, {"measurement": "Resistance compared to wild-type", "setting": "[4]; resistant line R2", "value": 90, "unit": "fold"}, {"measurement": "Resistance compared to wild-type", "setting": "[4]; resistant line R3", "value": 10, "unit": "fold"}, {"measurement": "Injection site tolerance", "setting": "[5]", "value": "injection site tolerance issues"}]}]}
